{
  "source": "paper PMC9510668",
  "about": "(Frontiers in Pharmacology, 2022)",
  "origin": "cited, not measured here",
  "key": {"[1]": {"tested_on": "CYP3A4", "conditions": "read-out: Ki CYP3A4; ketoconazole; ref [1]; cited from earlier work"}, "[2]": {"conditions": "cited from earlier work"}, "[3]": {"tested_on": "UGT1A1", "set-up": "method as in ref [2] (a number printed in a supplementary file, which may have a reference list of its own: not looked up in the article's list)", "conditions": "ref [2]; cited from earlier work"}, "[4]": {"conditions": "healthy human, mean, cited from earlier work"}, "[5]": {"conditions": "cited from earlier work", "remark": "listed apart in the source"}, "[6]": {"tested_on": "VEGFR", "conditions": "ref Heath et al., 2010; cited from earlier work"}, "[7]": {"conditions": "human; ref Heath et al., 2010; cited from earlier work"}, "[8]": {"set-up": "method as in Röhss and Hedenström, 2002", "conditions": "40 mg OD orally for 5 days; ref Röhss and Hedenström, 2002; cited from earlier work"}, "[9]": {"tested_on": "OATP1B1", "conditions": "lapatinib; ref [8]; cited from earlier work"}, "[10]": {"molecular_target": "BCRP1", "set-up": "method as in ref [8] (a number printed in a supplementary file, which may have a reference list of its own: not looked up in the article's list)", "conditions": "lapatinib; ref [8]; cited from earlier work"}, "[11]": {"tested_on": "P-gp", "conditions": "lapatinib; ref [8]; cited from earlier work"}, "[12]": {"tested_on": "CYP3A5", "set-up": "method as in ref [6] (a number printed in a supplementary file, which may have a reference list of its own: not looked up in the article's list)", "conditions": "ref [6]; cited from earlier work"}, "[13]": {"tested_on": "CYP3A4", "set-up": "method as in ref [6] (a number printed in a supplementary file, which may have a reference list of its own: not looked up in the article's list)", "conditions": "ref [6]; cited from earlier work"}},
  "note": "Where two headings read alike, the source gives them in different places.",
  "data": [
    {"compound": "CC(=O)N1CCN(c2ccc(OCC3COC(Cn4ccnc4)(c4ccc(Cl)cc4Cl)O3)cc2)CC1", "note": "(stereo not drawn) [ketoconazole]", "values": [
      {"measurement": "Ki", "setting": "[1]", "result": "[…]"},
      {"measurement": "Solubility in buffer", "setting": "[2]; @pH6.5, ref [1]", "result": 6.93, "unit": "µg/mL"},
      {"measurement": "Log (@pH7.4), lipophilicity", "setting": "[2]; pH7.4, ref [1]", "result": 2.67},
      {"measurement": "Km", "setting": "[3]", "result": 22.3, "unit": "µM"},
      {"measurement": "UGT1A1 Vmax", "setting": "[3]", "result": 9.37, "unit": "pmol/min/pmol"},
      {"measurement": "AUC0-48, Observed", "setting": "[4]; ketoconazole", "result": 40600, "unit": "ng·h/mL"},
      {"measurement": "Cmax, Observed", "setting": "[4]; ketoconazole", "result": 6200, "unit": "ng/mL"},
      {"measurement": "Tmax, Observed", "setting": "[4]; ketoconazole", "result": "[…]"},
      {"measurement": "Rbp", "setting": "[5]; ketoconazole, ref [1]", "result": 0.59},
      {"measurement": "fup", "setting": "[5]; ketoconazole, ref [1]", "result": "[…]"}
    ]},
    {"compound": "Cc1c2ccc(N(C)c3ccnc(Nc4ccc(CO)c(S(N)(=O)=O)c4)n3)cc2nn1C", "note": "[GSK1268997]", "values": [
      {"measurement": "Potency towards VEGFR in comparison to PAZ", "setting": "[6]", "result": "equal potency"},
      {"measurement": "Systemic exposure relative to unchanged PAZ", "setting": "[7]", "result": "about 2%"}
    ]},
    {"compound": "COc1ccc2nc([S@@+]([O-])Cc3ncc(C)c(OC)c3C)[nH]c2c1", "note": "[esomeprazole]", "values": [
      {"measurement": "Human intragastric mean 24-h pH", "setting": "[8]", "result": 4.78}
    ]},
    {"compound": "CS(=O)(=O)CCNCc1ccc(-c2ccc3ncnc(Nc4ccc(OCc5cccc(F)c5)c(Cl)c4)c3c2)o1", "note": "[lapatinib]", "values": [
      {"measurement": "Ki", "setting": "[9]", "result": 4000, "unit": "nM"},
      {"measurement": "Ki", "setting": "[10]", "result": 25, "unit": "nM"},
      {"measurement": "Water Solubility in FaSSIF pH=6.5", "setting": "[2]; ref [3]", "result": 5.4, "unit": "μg/mL"},
      {"measurement": "Ki", "setting": "[11]", "result": 3900, "unit": "nM"},
      {"measurement": "AUC0-48, Observed", "setting": "[4]; lapatinib", "result": 5328.9, "unit": "ng·h/mL"},
      {"measurement": "Cmax, Observed", "setting": "[4]; lapatinib", "result": 311.0, "unit": "ng/mL"},
      {"measurement": "Tmax, Observed", "setting": "[4]; lapatinib", "result": 3, "unit": "h"},
      {"measurement": "fup", "setting": "[5]; lapatinib, ref [4]", "result": 0.01},
      {"measurement": "Rbp", "setting": "[5]; lapatinib, ref [5]", "result": 0.84},
      {"measurement": "CPY3A5 CLint", "setting": "[12]", "result": 5, "unit": "µL/min/nmol"},
      {"measurement": "CPY3A4 CLint", "setting": "[13]", "result": 105, "unit": "µL/min/nmol"}
    ]}
  ]
}
